ChEMBL document CHEMBL5465560, “Selectivity Literature for EUbOPEN Chemogenomic Library” (2024)

What was measured:
[1] = molecular target: Sigma non-opioid intracellular receptor 1 (Homo sapiens) (UniProt Q99720); test: Selectivity interaction (Eurofins CEREP Diversity Profile (receptors and ion channels)) EUB0000279b SIGMAR1; conditions: at 10 µM
[2] = molecular target: Fibroblast growth factor receptor 2 (Homo sapiens) (UniProt P21802); test: Selectivity interaction (Kinase panel (DSF assay)) EUB0001559a FGFR2
Sequence of Fibroblast growth factor receptor 2 (Homo sapiens) (P21802 22-821 limits assumed): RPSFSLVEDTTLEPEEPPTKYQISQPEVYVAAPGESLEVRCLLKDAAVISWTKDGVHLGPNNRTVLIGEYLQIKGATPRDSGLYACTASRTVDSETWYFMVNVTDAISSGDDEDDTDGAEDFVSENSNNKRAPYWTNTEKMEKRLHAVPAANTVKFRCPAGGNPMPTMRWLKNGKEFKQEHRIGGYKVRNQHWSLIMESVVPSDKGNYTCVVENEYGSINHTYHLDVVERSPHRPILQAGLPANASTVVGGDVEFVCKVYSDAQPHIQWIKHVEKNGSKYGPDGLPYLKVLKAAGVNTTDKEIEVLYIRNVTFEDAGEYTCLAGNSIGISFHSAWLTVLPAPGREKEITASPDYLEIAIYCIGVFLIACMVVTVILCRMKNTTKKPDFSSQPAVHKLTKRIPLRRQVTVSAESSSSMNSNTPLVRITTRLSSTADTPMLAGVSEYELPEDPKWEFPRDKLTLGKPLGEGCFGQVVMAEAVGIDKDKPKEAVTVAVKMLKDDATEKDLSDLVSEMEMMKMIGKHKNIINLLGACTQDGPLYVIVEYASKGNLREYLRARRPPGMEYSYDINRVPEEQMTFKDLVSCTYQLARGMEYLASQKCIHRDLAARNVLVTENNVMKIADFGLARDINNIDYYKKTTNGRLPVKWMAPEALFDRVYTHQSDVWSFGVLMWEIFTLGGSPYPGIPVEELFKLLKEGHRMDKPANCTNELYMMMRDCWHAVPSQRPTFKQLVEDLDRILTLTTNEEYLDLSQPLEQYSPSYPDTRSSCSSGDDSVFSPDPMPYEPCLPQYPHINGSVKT

[3] = molecular target: Tyrosine-protein kinase Fer (Homo sapiens) (UniProt P16591); test: Selectivity interaction (KinomeScan (DiscoverX)) EUB0000655a FER; conditions: at 10 µM
Sequence of Tyrosine-protein kinase Fer (Homo sapiens) (P16591 whole entry, looked up, the tested form may be a part): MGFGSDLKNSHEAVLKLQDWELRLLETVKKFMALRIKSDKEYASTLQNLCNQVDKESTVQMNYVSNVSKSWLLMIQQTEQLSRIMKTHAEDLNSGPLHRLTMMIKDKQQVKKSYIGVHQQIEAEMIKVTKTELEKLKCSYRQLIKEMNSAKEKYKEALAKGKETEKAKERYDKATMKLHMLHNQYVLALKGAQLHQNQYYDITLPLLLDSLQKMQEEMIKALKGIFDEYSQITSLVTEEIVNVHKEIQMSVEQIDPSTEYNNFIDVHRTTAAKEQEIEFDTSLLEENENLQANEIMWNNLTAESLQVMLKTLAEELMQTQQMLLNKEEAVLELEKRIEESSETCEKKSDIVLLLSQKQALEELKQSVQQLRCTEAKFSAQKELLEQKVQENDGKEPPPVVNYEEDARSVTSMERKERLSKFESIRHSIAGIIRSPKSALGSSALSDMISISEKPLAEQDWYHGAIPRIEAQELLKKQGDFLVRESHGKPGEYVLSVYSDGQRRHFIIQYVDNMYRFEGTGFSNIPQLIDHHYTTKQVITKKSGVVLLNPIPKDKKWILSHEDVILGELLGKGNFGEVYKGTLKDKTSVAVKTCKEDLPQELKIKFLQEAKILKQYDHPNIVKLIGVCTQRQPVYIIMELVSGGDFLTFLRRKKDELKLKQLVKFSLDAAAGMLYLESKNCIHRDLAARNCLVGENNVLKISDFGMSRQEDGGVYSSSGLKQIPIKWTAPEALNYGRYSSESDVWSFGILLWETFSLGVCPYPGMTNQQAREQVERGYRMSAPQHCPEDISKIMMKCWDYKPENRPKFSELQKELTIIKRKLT

[4] = molecular target: LIM domain kinase 1 (Homo sapiens) (UniProt P53667); test: Selectivity interaction (KinomeScan (DiscoverX)) EUB0000618a LIMK1; conditions: at 10 µM
[5] = molecular target: Serine/threonine-protein kinase N1 (Homo sapiens, UniProt Q16512); test: Selectivity interaction (KinomeScan (DiscoverX)) EUB0000607a PKN1; conditions: at 10 µM
[6] = molecular target: Mitogen-activated protein kinase kinase kinase kinase 1 (Homo sapiens) (UniProt Q92918); test: Selectivity interaction (KinomeScan (DiscoverX)) EUB0001619a MAP4K1; conditions: at 1 µM
Sequence of Mitogen-activated protein kinase kinase kinase kinase 1 (Homo sapiens) (Q92918 whole entry, looked up): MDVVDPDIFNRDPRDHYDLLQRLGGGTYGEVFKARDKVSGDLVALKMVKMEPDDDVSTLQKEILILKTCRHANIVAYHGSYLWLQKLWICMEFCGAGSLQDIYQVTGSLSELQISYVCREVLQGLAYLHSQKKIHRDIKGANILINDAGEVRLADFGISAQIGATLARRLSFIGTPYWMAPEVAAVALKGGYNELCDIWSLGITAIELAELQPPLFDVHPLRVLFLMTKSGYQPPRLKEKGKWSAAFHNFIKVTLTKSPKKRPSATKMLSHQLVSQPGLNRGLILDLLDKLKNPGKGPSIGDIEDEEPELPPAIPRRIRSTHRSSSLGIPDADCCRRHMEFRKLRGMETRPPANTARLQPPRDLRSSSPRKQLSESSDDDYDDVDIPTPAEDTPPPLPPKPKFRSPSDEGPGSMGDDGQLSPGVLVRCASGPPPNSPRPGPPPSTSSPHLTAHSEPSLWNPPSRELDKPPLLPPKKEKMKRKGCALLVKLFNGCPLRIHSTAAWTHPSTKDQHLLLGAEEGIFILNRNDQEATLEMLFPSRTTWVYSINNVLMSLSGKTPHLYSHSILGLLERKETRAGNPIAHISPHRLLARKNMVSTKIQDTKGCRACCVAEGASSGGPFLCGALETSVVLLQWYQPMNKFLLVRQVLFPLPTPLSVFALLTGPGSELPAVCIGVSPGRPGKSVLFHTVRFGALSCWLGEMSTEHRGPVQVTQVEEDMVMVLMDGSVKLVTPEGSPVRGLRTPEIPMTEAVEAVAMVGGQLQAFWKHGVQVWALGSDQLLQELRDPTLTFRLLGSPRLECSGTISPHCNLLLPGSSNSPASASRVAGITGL

[7] = test system: Tyrosine-protein kinase ABL1 (Homo sapiens), P00519 [H396P]; test: Selectivity interaction (KinomeScan (DiscoverX)) EUB0000045b ABL1; conditions: at 1 µM
[8] = molecular target: cAMP-dependent protein kinase catalytic subunit beta (Homo sapiens) (UniProt P22694); test: Selectivity interaction (KinomeScan (DiscoverX)) EUB0000045b PRKACB
[9] = molecular target: Diacylglycerol kinase alpha (Homo sapiens) (UniProt P23743); test: Selectivity interaction (Kinase panel (KiNativ target engagement assay in Jurkat cells)) EUB0001635a DGKA; format: cell-based; conditions: Selectivity number of off-targets 0.0, Selectivity number of targets 233.0, Source Knowledge https://www.sciencedirect.com/science/article/pii/S2451945619300674?via%3Dihub, at 1 µM
[10] = molecular target: T1, Phosphatidylinositol 3-kinase catalytic subunit type 3 (Homo sapiens, UniProt Q8NEB9); test: Selectivity interaction (ActivX KiNativ screen (kinase selectivity in THP-1 cell lysates)) EUB0000639a PIK3C3; format: subcellular; conditions: lysate, at 5 µM
T1 sequence (Q8NEB9 whole entry): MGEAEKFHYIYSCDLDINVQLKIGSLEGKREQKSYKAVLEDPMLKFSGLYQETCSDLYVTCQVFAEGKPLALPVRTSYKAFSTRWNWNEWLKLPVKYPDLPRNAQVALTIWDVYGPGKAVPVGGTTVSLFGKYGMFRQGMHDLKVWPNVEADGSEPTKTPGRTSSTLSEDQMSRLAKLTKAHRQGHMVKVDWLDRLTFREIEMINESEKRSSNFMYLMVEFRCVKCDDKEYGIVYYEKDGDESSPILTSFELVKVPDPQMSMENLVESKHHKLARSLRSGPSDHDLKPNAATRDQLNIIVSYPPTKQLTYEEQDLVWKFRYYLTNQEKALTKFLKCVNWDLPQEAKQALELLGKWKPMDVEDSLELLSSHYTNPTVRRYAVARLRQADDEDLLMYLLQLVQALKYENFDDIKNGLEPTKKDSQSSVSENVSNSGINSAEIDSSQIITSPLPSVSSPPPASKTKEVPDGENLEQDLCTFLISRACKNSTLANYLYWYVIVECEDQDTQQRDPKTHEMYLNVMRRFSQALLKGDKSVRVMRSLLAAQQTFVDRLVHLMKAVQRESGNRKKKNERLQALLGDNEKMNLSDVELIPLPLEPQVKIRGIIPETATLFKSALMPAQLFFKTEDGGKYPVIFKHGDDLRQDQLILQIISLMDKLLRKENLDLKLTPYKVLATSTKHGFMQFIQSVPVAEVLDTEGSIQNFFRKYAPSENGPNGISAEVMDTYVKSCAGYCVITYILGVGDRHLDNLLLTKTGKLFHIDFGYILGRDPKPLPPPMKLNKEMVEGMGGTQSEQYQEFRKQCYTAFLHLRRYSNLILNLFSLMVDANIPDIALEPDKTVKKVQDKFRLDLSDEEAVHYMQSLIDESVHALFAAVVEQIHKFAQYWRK

[11] = molecular target: Ribosomal protein S6 kinase alpha-1 (Homo sapiens, UniProt Q15418); test: Selectivity interaction (ActivX KiNativ screen (kinase selectivity in THP-1 cell lysates)) EUB0000639a RPS6KA1; format: subcellular; conditions: lysate, at 0.2 µM
Sequence of Ribosomal protein S6 kinase alpha-1 (Q15418 whole entry): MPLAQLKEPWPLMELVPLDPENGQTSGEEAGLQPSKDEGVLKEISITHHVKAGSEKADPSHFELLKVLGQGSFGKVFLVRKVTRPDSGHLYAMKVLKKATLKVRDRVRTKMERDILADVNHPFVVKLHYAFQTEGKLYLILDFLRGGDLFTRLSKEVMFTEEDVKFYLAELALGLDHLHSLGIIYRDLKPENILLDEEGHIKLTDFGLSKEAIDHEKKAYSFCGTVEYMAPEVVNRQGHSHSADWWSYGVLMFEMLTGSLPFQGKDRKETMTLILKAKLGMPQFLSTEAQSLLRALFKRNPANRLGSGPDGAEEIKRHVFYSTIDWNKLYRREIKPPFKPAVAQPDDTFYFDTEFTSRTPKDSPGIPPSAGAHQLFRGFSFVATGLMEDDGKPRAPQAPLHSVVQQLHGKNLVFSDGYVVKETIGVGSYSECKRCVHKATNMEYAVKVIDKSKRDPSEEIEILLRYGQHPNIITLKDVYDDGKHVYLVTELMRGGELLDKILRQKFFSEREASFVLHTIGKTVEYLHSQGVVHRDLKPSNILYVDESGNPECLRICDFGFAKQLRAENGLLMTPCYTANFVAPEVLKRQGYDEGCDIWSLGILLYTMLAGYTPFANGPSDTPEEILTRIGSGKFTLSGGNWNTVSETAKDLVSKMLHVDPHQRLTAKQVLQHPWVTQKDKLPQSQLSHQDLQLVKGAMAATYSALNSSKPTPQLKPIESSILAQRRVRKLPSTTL

[12] = molecular target: T2, Inhibitor of nuclear factor kappa-B kinase subunit epsilon (Homo sapiens) (UniProt Q14164); test: Selectivity interaction (KinomeScan (DiscoverX)) EUB0000229b IKBKE; conditions: at 10 µM
T2 sequence (whole entry): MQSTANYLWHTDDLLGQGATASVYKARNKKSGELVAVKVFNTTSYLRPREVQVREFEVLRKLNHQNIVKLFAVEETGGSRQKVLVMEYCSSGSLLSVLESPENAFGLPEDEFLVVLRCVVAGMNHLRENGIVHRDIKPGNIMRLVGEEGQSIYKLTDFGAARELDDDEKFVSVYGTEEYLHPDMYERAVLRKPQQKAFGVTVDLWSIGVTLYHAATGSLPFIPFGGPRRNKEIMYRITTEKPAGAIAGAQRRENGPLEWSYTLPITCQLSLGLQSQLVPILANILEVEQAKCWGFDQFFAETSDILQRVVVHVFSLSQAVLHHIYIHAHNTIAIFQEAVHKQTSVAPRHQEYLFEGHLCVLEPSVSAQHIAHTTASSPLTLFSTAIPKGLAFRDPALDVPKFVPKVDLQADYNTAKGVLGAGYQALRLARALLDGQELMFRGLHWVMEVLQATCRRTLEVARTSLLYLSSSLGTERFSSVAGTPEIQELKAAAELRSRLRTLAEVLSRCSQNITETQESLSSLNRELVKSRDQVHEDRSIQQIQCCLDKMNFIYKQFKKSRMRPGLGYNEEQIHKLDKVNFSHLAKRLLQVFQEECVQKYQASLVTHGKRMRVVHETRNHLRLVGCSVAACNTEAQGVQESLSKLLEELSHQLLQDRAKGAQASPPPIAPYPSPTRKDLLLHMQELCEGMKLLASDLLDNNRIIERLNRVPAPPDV

[13] = molecular target: Phosphorylase b kinase gamma catalytic chain, skeletal muscle/heart isoform (Homo sapiens) (UniProt Q16816); test: Selectivity interaction (KinomeScan (DiscoverX)) EUB0000229b PHKG1; conditions: at 10 µM
Sequence of Phosphorylase b kinase gamma catalytic chain, skeletal muscle/heart isoform (Homo sapiens) (Q16816 whole entry, looked up, canonical isoform): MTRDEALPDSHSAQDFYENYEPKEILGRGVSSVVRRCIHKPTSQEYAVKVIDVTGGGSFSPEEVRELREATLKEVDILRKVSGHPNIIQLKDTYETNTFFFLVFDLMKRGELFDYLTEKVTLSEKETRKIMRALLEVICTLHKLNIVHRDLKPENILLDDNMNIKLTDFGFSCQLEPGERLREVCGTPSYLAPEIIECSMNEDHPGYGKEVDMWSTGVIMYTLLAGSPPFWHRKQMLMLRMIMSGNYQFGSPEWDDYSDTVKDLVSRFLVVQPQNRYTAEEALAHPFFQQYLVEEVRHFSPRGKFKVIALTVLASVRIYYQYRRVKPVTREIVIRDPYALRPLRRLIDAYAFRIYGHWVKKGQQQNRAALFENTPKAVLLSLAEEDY

[14] = molecular target: Tyrosine-protein kinase JAK1 (Homo sapiens, UniProt P23458); test: Selectivity interaction (KinomeScan (DiscoverX)) EUB0001049a JAK1; conditions: at 1 µM
[15] = molecular target: T1, Phosphatidylinositol 3-kinase catalytic subunit type 3; test: Selectivity interaction (Kinase panel (ADP-Glow assay)) EUB0000877a PIK3C3
[16] = molecular target: AP2-associated protein kinase 1 (Homo sapiens, UniProt Q2M2I8); test: Selectivity interaction (KinomeScan (DiscoverX)) EUB0000666a AAK1; conditions: at 10 µM
[17] = molecular target: Hepatocyte growth factor-like protein (Homo sapiens) (UniProt P26927); test: Selectivity interaction (KinomeScan (DiscoverX)) EUB0000666a MST1; conditions: at 10 µM
[18] = molecular target: T3, Protein kinase C iota type (Homo sapiens) (UniProt P41743); test: Selectivity interaction (KinomeScan (DiscoverX)) EUB0000666a PRKCI; conditions: at 10 µM
T3 sequence (whole entry): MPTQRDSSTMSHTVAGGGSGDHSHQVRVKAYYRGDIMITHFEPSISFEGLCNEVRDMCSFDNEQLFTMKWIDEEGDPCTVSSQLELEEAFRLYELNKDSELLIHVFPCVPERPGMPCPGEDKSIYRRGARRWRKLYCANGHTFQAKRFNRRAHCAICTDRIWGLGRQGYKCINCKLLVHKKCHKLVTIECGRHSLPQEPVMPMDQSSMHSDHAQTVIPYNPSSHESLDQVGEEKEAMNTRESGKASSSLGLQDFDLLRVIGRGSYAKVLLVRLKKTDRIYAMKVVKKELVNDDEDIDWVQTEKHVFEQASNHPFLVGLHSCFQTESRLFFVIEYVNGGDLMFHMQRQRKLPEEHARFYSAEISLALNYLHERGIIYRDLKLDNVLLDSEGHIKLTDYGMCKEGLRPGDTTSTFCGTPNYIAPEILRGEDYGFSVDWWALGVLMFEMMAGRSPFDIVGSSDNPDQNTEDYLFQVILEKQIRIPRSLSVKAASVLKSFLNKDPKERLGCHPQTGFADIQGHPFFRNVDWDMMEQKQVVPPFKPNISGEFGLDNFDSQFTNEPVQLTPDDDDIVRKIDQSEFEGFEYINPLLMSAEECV

[19] = molecular target: Serine/threonine-protein kinase pim-3 (Homo sapiens) (UniProt Q86V86); test: Selectivity interaction (KinomeScan (DiscoverX)) EUB0000092b PIM3; conditions: at 10 µM
[20] = molecular target: Bromodomain-containing protein 7 (Homo sapiens) (UniProt Q9NPI1); test: Selectivity interaction (Human bromodomain panel (DSF assay)) EUB0000233b BRD7
[21] = molecular target: Serine/threonine-protein kinase N2 (Homo sapiens, UniProt Q16513); test: Selectivity interaction (Kinase screening (Upstate/Millipore)) EUB0000604a PKN2

Sequence of Sigma non-opioid intracellular receptor 1 (Homo sapiens) (Q99720 whole entry): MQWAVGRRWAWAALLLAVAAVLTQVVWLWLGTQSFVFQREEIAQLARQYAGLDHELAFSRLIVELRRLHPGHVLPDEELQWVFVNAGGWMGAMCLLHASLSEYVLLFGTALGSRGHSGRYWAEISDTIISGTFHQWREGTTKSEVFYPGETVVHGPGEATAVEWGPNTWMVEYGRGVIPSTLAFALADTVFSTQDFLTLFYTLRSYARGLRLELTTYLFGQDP

CC(=O)c1cc(-c2ccccc2OCC2CC2)c2ncccn12
% of control [1]: 98%

CN(C(=O)c1cnn2cccnc12)c1cc2c(cc1N1CCOCC1)C(=O)N(C[C@@H](F)C(C)(C)O)C2
dTM [2]: 0.3 K

CN(C)CCOc1ccc(-c2nc(-c3ccncc3)c(-c3ccc4c(c3)CC/C4=N\O)[nH]2)cc1
% of control [3]: 100%

O[C@H]1CC[C@H](Nc2ncc3nc(Nc4c(F)cc(F)cc4F)n([C@H]4CCOC4)c3n2)CC1
% of control [4]: 35%

CNC(=O)Nc1ccc(-c2nc(N3CC4CCC(C3)O4)c3cnn(C4CCC5(CC4)OCCO5)c3n2)cc1
% of control [5]: 100%

N#Cc1cccc(-c2c[nH]c3ncnc(N4CCOCC4)c23)c1
% of control [6]: 79%

C=CC(=O)Nc1cc(-n2c(=O)ccc3cnc4ccc(-c5ccc(NS(C)(=O)=O)cc5)cc4c32)ccc1C
% of control [7]: 74% | % of control ([8]; at 1 µM): 79% | % of control ([8]; at 10 µM): 100%

C=CC(=O)Nc1ccc(C(=O)Nc2[nH]nc3c2CN(C(=O)N[C@H](CN(C)C)c2ccccc2)C3(C)C)cc1
% of engagement [9]: -18.9%

CC[C@@H]1[C@H](F)C(=O)N[C@@H]1COc1nccc2cc(C(N)=O)c(OC)cc12 [ZIMLOVISERTIB]
% of inhibition [10]: 30.7% | % of inhibition [11]: 13.8%

COc1cc(N(C)c2ccnc3ccc(C(F)(F)F)cc23)cc(OC)c1OC
% binding [12]: 84% | % binding [13]: 100%

COc1cc(Nc2nc(C)cc(-c3cnn4nc(OC)ccc34)n2)cc(C(F)(F)F)c1
% of control [14]: 85%

CCC(=O)N1CC[C@H](Nc2ncnc3c2CN(c2cnc(OC)c(C(F)(F)F)c2)CC3)C1 [LENIOLISIB]
IC50 [15]: > 9.1 µM

O=C(NOC[C@H](O)CO)c1ccc(F)c(F)c1Nc1ccc(I)cc1F
% of control [16]: 100% | % of control [17]: 100% | % of control [18]: 70%

CCC(=O)N1CCN(c2ccc(-n3c(=O)ccc4cnc5ccc(-c6cnc7ccccc7c6)cc5c43)cc2C(F)(F)F)CC1
% of control [19]: 96%

CN(C)CCCOc1ccc(-c2cc(NCCCn3cccn3)nc(S(C)(=O)=O)n2)cc1
dTM [20]: 4 K

Cc1cnc(Nc2ccc(F)cc2Cl)nc1-c1c[nH]c(C(=O)N[C@H](CO)c2cccc(Cl)c2)c1
% of inhibition [21]: 14%
